Reference: patent US4822796A, “1-((Phenothiazin-10-yl)alkyl)-alpha-phenyl-4-piperidinemethanols and pharmaceutical use” (priority 1987, dated 1989)

Columns and labels:
[1] = modified phenyl-p-quinone writhing assay in mice (analgesia); format: in vivo, mice (male, Charles River, CD-1)
Description: The procedure employed to determine analgesic utility is a modification of the phenyl-p-quinone writhing assay in mice, a standard assay for analgesia [Proc. Soc. Exptl. Bio. Med., 95 729 (1957)]. In the modified procedure phenyl-p-benzoquinone (Eastman, 12.5 mg) is dissolved in 5 ml of 95% ethanol and the solution is diluted to a total volume of 100 ml with distilled water. The solution is administered to the subject mice […] at a dose of 10 ml per kg of body weight. A characteristic "writh", an inward rotation of one or more feet with twisting and turning of the trunk, drawing in of the abdominal wall, lordosis and arching of the back, is produced.
A total of 28 male mice (Charles River, CD-1), weighing 18 to 30 grams, are employed for a time response. The subject animals receive food and water ad libitum. Test compounds are dissolved in distilled water, or suspended in distilled water containing one drop of a suitable surfactant, such as Tween-80.
Four groups of five animals (20 animals) are given the test compound subcutaneously at 15, 30, 45 and 60 minutes prior to administration of the phenyl-p-quinone. Four control groups of 2 animals (8 animals) receive an equal volume of the vehicle. […] The number of writhes for each animal is recorded. […]

[2] = climbing mice assay (antipsychotic activity; inhibition of apomorphine induced climbing); format: in vivo, mice (CK-1 male); conditions: Mus musculus, ip, 30 minutes prior to apomorphine 1.5 mg/kg s.c., read-out: Anti-Psychotic Activity (ED50), 50% inhibition of apomorphine induced climbing
From the text: The subject CK-1 male mice (23-27 grams) are group-housed under standard laboratory conditions. The mice are individually placed in wire mesh stick cages (4"×4" by 10") and are allowed one hour for adaptation and exploration of the new environment.
Mice consistently climbing before the injection of apomorphine are discarded.
With full-developed apomorphine climbing, the animals are hanging onto the cage walls, rather motionless, over longer periods of time. By contrast, climbs due to mere motor stimulation usually last only a few seconds.

Row | Structure (SMILES) | Analgesic Activity (% Inhibition of Writhing) ([1]; at 1.3 mg/kg sc, standard) [%] | ED50 [2] [mg/kg] | Analgesic Activity (% Inhibition of Writhing) ([1]; at 20 mg/kg, subcutaneous (route per method)) [%]
1 | CC(C)=CCN1CCC2(C)c3cc(O)ccc3CC1C2C (stereo not shown) [Pentazocine] | 50 | – | –
2 | CSc1ccc2c(c1)N(CCC1CCCCN1C)c1ccccc1S2 (stereo not shown) [Thioridazine] | – | 4.1 | –
3 | CSc1ccc2c(c1)N(CCCN1CCC(C(O)c3ccc(F)cc3)CC1)c1ccccc1S2 (stereo not drawn) [α-(4-Fluorophenyl)-1-[3-(2-methylthiophenothiazin-10-yl)propyl]-4-piperidinemethanol] | – | 8.6 | 43
